Like-named read-outs stand apart in the source and are kept apart here.
Tests used:
[1] = both, human, 6 h, 2 µM, pH 7.4
Description: Microsomal binding (fumic):
(§1) The fraction unbound in human liver microsomes (fumic) of compounds was determined by equilibrium
(§2) dialysis using the high-throughput dialysis method 2 using membranes from HTDialysis, LLC (Gales
(§3) Ferry, CT) having 12 to 14 kDa molecular mass cutoff. Deactivated HLM (by leaving the HLM
(§4) incubation media on the bench overnight at ambient temperature) at 0.25 mg/mL with 2 µM of
(§5) compounds (a final concentration of DMSO as 1%) was added to the donor compartment in 50 mM
(§6) phosphate buffer containing 1 M MgCl2. (150 µL, n=4 per compound). 150 µL of Dulbecco’s PBS
(§7) buffer (pH 7.4) was added to the receiver chamber for each replicate. After reaching equilibrium for 6
(§8) h on a plate shaker (200 rpm) at 37°C in a humidified CO2 incubator (5% CO2), aliquots from both the
(§9) receiver (45 µL) and donor (15 µL) sides of the membrane were matrix matched and analyzed by LC-
(§10) MS/MS. Matrix stability (n=3) and % of recovery (n=4) were assessed.
(§11) Data analysis for binding in microsomal and cytosolic incubations:
(§12) Fraction unbound in microsomal (fumic) and cytosolic (fucyt) incubations were calculated via Eq. S10-11
(§13) based on the ratio of the peak areas of analyte and internal standard.
(§14) 𝑃𝑒𝑎𝑘 𝐴𝑟𝑒𝑎 𝑅𝑎𝑡𝑖𝑜 = (𝑃𝑒𝑎𝑘 𝐴𝑟𝑒𝑎 𝑜𝑓 𝐴𝑛𝑎𝑙𝑦𝑡𝑒)/(𝑃𝑒𝑎𝑘 𝐴𝑟𝑒𝑎 𝑜𝑓 𝐼𝑛𝑡𝑒𝑟𝑛𝑎𝑙 𝑆 tan 𝑑 𝑎𝑟𝑑) (Eq. S10)
(§15) 𝑓𝑢𝑚𝑖𝑐 𝑜𝑟 𝑓𝑢𝑐𝑦𝑡 = (𝑃𝑒𝑎𝑘 𝐴𝑟𝑒𝑎 𝑅𝑎𝑡𝑖𝑜 𝑖𝑛 𝑟𝑒𝑐𝑒𝑖𝑣𝑒𝑟 𝑐𝑜𝑚𝑝𝑎𝑟𝑡𝑚𝑒𝑛𝑡)/
(§16) concentration (0.5 mg/mL) using Hallifax and Houston algorithm (Hallifax and Houston, 2006). Matrix
(§17) stability and recovery were assessed using Eq. S12 and Eq. S13.
(§18) %𝑠𝑡𝑎𝑏𝑖𝑙𝑖𝑡𝑦 = (𝐴𝑣𝑒𝑟𝑎𝑔𝑒 𝑝𝑒𝑎𝑘 𝑎𝑟𝑒𝑎 𝑖𝑛 𝑚𝑎𝑡𝑟𝑖𝑥 𝑎𝑡 𝑡ℎ𝑒 𝑒𝑛𝑑 𝑜𝑓 𝑖𝑛𝑐𝑢𝑏𝑎𝑡𝑖𝑜𝑛)/
(§19) (𝐴𝑣𝑒𝑟𝑎𝑔𝑒 𝑝𝑒𝑎𝑘 𝑎𝑟𝑒𝑎 𝑎𝑡 𝑇 = 0) × 100 (Eq. S12)
%𝑟𝑒𝑐𝑜𝑣𝑒𝑟𝑦 = (𝐴 + 𝐵)/𝐶 × 100 (Eq. S13)
(§20) where A is the average peak area ratio of all matrix samples, B is the average peak area ratio
(§21) of all buffer samples multiplied with the buffer dilution factor and C is the average peak area ratio of

[2] = tested on: CYP3A4; details: cited from earlier work
[3] = Microsomal binding (fumic); details: for Predicted fumic for 1 mg/mL: corrected with Hallifax&Houston algorithm
Description: Microsomal binding (fumic):
as §1, §2, §3, §4, §5, §6, §7, §8, §9, §10, §11, §12, §13, §14, §15, §16, §17, §18, §19
%𝑟𝑒𝑐𝑜𝑣𝑒𝑟𝑦 = (𝐴 + 𝐵)/𝐶 × 100 (Eq. S13)
as §20, §21

[4] = Cytosolic binding (fucyt), dog liver cytosol; details: 1 mg/mL; n=3, mean (CV%)
[5] = Cytosolic binding (fucyt), human liver cytosol with AO inhibitor; details: 1 mg/mL; n=3, mean (CV%)
[6] = with 25 μM hydralazine; cited from earlier work
[7] = cited from earlier work
[8] = observed, cited from earlier work; for CLRenal: ref Table S2/S3 studies
[9] = In vitro permeability (Papp), transwell transport; details: dog, MDCK
[10] = Plasma protein binding (fup), rapid equilibrium dialysis; type: in vitro ADME, human; details: male, human, plasma, 20 h, 1 µM
[11] = Cytosolic clearance incubations (substrate depletion); details: both, human, liver cytosol
Description: In vitro CLint,u was measured with substrate depletion and binding assays for all compounds (1 μM) in human liver microsomes (HLM; 0.25–0.5 mg/mL) and HLC (1 mg/mL). HLC pool was prepared from livers perfused with Custodiol HTK (histidine tryptophan ketoglutarate) solution, marketed as having preserved “high AO/XO activity.”[15]
Cytosolic clearance incubations (CLint):
Cytosolic incubations were conducted in triplicate, with an additional assay with one replicate for each
Human liver cytosols (HLC) were stored at −80°C and
rapidly thawed just before use at 37°C. HLC (final concentration, 1 mg/mL) was added to Eppendorf
tubes in 96-well plate format and prewarmed at 37°C for 5 min. 45 µL of 50 mM potassium phosphate
concentration of organic solvent in the incubation media was ≤0.1%. Reactions were initiated by the
addition of compound stock solutions (final concentration, 1 µM in 500 µL). At each time point (0, 5,
15, 30, 60 and 120 min), samples from the incubation mixture were added to quench solutions (ACN
or ACN:MeOH containing pruvanserin or midazolam as internal standard, 80:20, v:v). The mixture was
centrifuged at 3500-4000 rpm for 10-30 min (Beckman Coulter Allegra 25R Centrifuge; Brea, CA,
USA). Each well was assayed for parent compound and internal standard, using a suitable LC/MS/MS
method. Positive control carbazeran (1 µM) was run at the same time to ensure system integrity (data

[12] = in vitro; details: both, human, microsomes
Description: (§22) Subcellular fractions of human and dog liver were sourced from XenoTech (Kansas City, KS, USA). In vitro CLint,u was measured with substrate depletion and binding assays for all compounds (1 μM) in human liver microsomes (HLM; 0.25–0.5 mg/mL) and HLC (1 mg/mL).
(§23) Microsomal clearance incubations (CLint):
(§24) Human liver microsomes were stored at −80°C and rapidly thawed just before use at 37°C.
(§25) All compounds were mixed with HLM and 50 mM
(§26) phosphate buffer. 450 µL of the mixture was added to 1.2mL cluster tubes in a 96-well block in
(§27) duplicate and warmed in a water bath (Thermo Scientific Precision™,Waltham MA, USA ) at 37°C for
(§28) 5 min. Reactions were initiated by the addition of 50 µL from 10 mM of NADPH stock in 50 mM
(§29) phosphate buffer (final NADPH concentration, 1 mM). The final incubation contained 1 µM test
(§30) compound in 500 µL total volume with 0.02% DMSO. At each time point (5, 10, 20, 30, and 60 min),
(§31) 60 µL of incubation mixture was added to 120 uL of quench solutions (MeOH:ACN, 1:1, v:v)
(§32) containing internal standard (0.5 µM carbutamide). The mixture was centrifuged at 3000 rpm for 20
(§33) min (Eppendorf 5810R, Hamburg, Germany). Supernatant was injected to HPLC-MS/MS with for data
(§34) Data analysis for substrate depletion assays:
(§35) Data from the microsomal and cytosolic incubations were analyzed using GraFit 7 (Erithacus Software,
(§36) Horley, UK) to determine the elimination rate constant (k), which was used in CLint calculation (Eq.
(§37) S9). A nonlinear single exponential fit was used for all compounds.
𝐶𝐿 = 𝑘 × 𝑣𝑜𝑙𝑢𝑚𝑒 𝑜𝑓 𝑖𝑛𝑐𝑢𝑏𝑎𝑡𝑖𝑜𝑛 (Eq S9)

[13] = cited from earlier work; for fmAO: ref suppl. 8-13
[14] = Microsomal clearance incubations (substrate depletion); details: both, human, liver microsomes
Description: as §22, §23, §24, §25, §26, §27, §28, §29, §30, §31, §32, §33, §34, §35, §36, §37
𝐶𝐿 = 𝑘 × 𝑣𝑜𝑙𝑢𝑚𝑒 𝑜𝑓 𝑖𝑛𝑐𝑢𝑏𝑎𝑡𝑖𝑜𝑛 (Eq S9)

[15] = tested on: aldehyde oxidase (AO); experiment: Observed clinical pharmacokinetics; details: male, human, plasma, intravenous, 80 mg
Description: Human mass balance and clinical pharmacokinetics data after i.v./oral administration (Supplement 3 in Appendix S1; Tables S2 and S3) were utilized to obtain observed fmi and CLint,u, respectively.[23], [24] When observed fmi contained uncertainty (Table S2), minimum and maximum fmi were tested. Virtual subjects (n = 1000) were generated using Simcyp, reflecting the subjects in respective clinical study (Table S3). The mean of the simulated physiological scalars, hepatic blood flow, and predicted/optimized fraction absorbed (fa) and fraction escaping gut metabolism (Fg) were then used in the back‐calculation of in vivo total CLint,u. The well‐stirred liver model was utilized if intravenous (i.v.) data were available or calculated from oral CL, as described previously.[5] CLint,u was then scaled back to cytosolic or microsomal CLint,u using physiological scalars and fmi. Middle‐out models were developed using either observed fmi or CLint,u to refine ESF‐supported bottom‐up models. In the top‐down model, both parameters were fixed to observed values (Figure 1).

[16] = DDI study with rifampicin (capmatinib 400, idelalisib 150, lenvatinib 24 mg) or carbamazepine (ziprasidone 20 mg), observed, ref suppl. 15,18,21,25
[17] = with itraconazole (capmatinib 200 mg) or ketoconazole (idelalisib 400, lenvatinib 5, ziprasidone 40 mg), observed, ref suppl. 15,10,17,20,24
[18] = with rifampicin (capmatinib 400, idelalisib 150, lenvatinib 24 mg) or carbamazepine (ziprasidone 20 mg), observed, ref suppl. 15,18,21,25
[19] = iv: zaleplon 5 (F), ziprasidone 5, zoniporide 80 mg, ref suppl. 22,23,13

COc1cc2nccc(Oc3ccc(NC(=O)NC4CC4)c(Cl)c3)c2cc1C(N)=O [Lenvatinib]
fumic (PBPK input) [1]: 0.627 | Cmax, control ([2]; DDI study with itraconazole (capmatinib 200 mg) or ketoconazole (idelalisib 400, lenvatinib 5, ziprasidone 40 mg), observed geomean (CV%), ref suppl. 15,10,17,20,24): 43.7 (26) ng/mL | AUCinf, control ([2]; DDI study with itraconazole (capmatinib 200 mg) or ketoconazole (idelalisib 400, lenvatinib 5, ziprasidone 40 mg), observed, ref suppl. 15,10,17,20,24): 577 (17) ng.h/mL | AUCinf, control (AUC0-12 for ziprasidone) [2, 16]: 2370 (24.2) ng.h/mL | Cmax, control [2, 16]: 274 (36.2) ng/mL | AUCinf, interaction [2, 17]: 662 (21) ng.h/mL | Cmax, interaction [2, 17]: 51.2 (38) ng/mL | AUCinf, interaction (AUC0-12 for ziprasidone) [2, 18]: 1950 (27.1) ng.h/mL | Cmax, interaction [2, 18]: 275 (28.6) ng/mL | Predicted fumic for 1 mg/mL [3]: 0.463 | fucyt, Dog Liver Cytosol with 50 uM Hydralazine [4]: 0.721 (7.47) | fucyt, Human Liver Cytosol with 5 uM Raloxifene [5]: 0.678 (3.49) | fucyt, Human Liver Cytosol with 50 uM Hydralazine [5]: 0.718 (1.95) | HH CLint, non-AO [6]: 0.5[21] μL/min/10^6 hepatocytes | pKa1 ([7]; 47 (per cell)): 12.37[44] | CLRenal [8]: 0.040 L/h | Papp A→B at 120 min, 5 µM [9]: 29.8 ×10⁻⁶ cm/s | Papp B→A at 120 min, 5 µM [9]: 21.3 ×10⁻⁶ cm/s | % Stability in plasma [10]: 108% | microsomal CLint at 1 µM [11]: 1 µL/min/mg | microsomal CLint at 1 µM [12]: 7.43 µL/min/mg | fmCYP3A4 ([13]; observed (mass balance), min-max where uncertain, ref suppl. 8-12): 28-41 | fmCYP3A4 (maximum) ([13]; ref suppl. 9-11): 0.41 | fmCYP3A4 (minimum) ([13]; ref suppl. 9-11): 0.28

N=C(N)NC(=O)c1cnn(-c2cccc3ncccc23)c1C1CC1 [Zoniporide]
fumic (PBPK input) ([3]; at incubation protein concentration (0.25 or 0.5 mg/mL)): 0.642 | Predicted fumic for 1 mg/mL [3]: 0.476 | fucyt, Dog Liver Cytosol with 50 uM Hydralazine [4]: 0.847 (1.57) | fucyt, Human Liver Cytosol with 5 uM Raloxifene [5]: 0.954 (5.40) | fucyt, Human Liver Cytosol with 50 uM Hydralazine [5]: 1 (0.40) | HH CLint, non-AO [6]: 1.6[21] μL/min/10^6 hepatocytes | pKa1 ([7]; 47 (per cell)): 3.4[47] | pKa2 ([7]; 47 (per cell)): 7.2[47] | logP ([7]; octanol-water, 12 (per cell)): 1.15[12] | AUCinf [8, 19]: 839 (4.08) ng.h/mL | CLiv [8, 19]: 95.4 (5.71) L/h | Cmax [8, 19]: 590 (7.49) ng/mL | CLRenal [8]: 16.2 L/h | Papp A→B at 120 min, 5 µM [9]: 1.72 ×10⁻⁶ cm/s | Papp B→A at 120 min, 5 µM [9]: 1.22 ×10⁻⁶ cm/s | % Stability in plasma [10]: 105% | microsomal CLint at 1 µM [14]: 5.19 µL/min/mg | CLint scaled [15]: > 1000 mL/min/kg | fmAO ([13]; measured in excreta): 0.52-0.69 | fmAO ([13]; observed (mass balance), min-max where uncertain, Table S10): 52-69 | fmother ([13]; observed (mass balance), min-max, ref suppl. 13): 13-30 | ferenal ([13]; ref suppl. 9-11, 13): 0.17 | fmother (maximum) ([13]; ref suppl. 9-11, 13): 0.30 | fmother (minimum) ([13]; ref suppl. 9-11, 13): 0.13 | fmAO (maximum) ([13]; ref suppl. 11, 13): 0.69 | fmAO (minimum) ([13]; ref suppl. 11, 13): 0.52 | fe (biliary) ([13]; ref suppl. 13): 0.01

Source: paper PMC11706420, “Establishing a physiologically based pharmacokinetic framework for aldehyde oxidase and dual aldehyde oxidase‐CYP substrates” (CPT: Pharmacometrics & Systems Pharmacology, 2024)
